What was measured:
[1] = system: Ear Edema Caused by Oxazolone; experiment: Inhibition of Ear Edema Caused by Oxazolone (II), Table 10; format: in vivo, CF-1 mice; details: i.p., 24 h
Procedure: Inhibition of Ear Edema Caused by Oxazolone (II)
CF-1 mice, 25-30 g body weight, five to six animals per group were used. The mice were sensitized to the irritant two weeks prior to the test by dribbling 100 μL of a 3% solution of oxazolone in acetone onto the abdominal skin of the animal. Test compounds were administered intraperitoneally as follows. […] The irritant, 3% oxazolone in acetone, was added to the surface of the ear, 5 μL added to the upper surface and 5 μL added to the lower surface. After twenty four hours, the thickness of the ear was measured to 0.01 mm by a micrometer with loose drag, positioned at the lateral-most edge of the mid-point of the pinna. Data were calculated as the inhibition of increased ear thickness compared to control animals' receiving only the irritant.

[2] = system: Reverse Passive Artus Reaction; experiment: Reverse Passive Artus Reaction (II), Table 11; format: in vivo, Male CD rats; details: inhibition of blueing; i.p., 100 mg/kg
Procedure: Reverse Passive Artus Reaction (II) Male CD rats weighing between 200 and 250 g were used. […] The animals were anesthetized inhalationally with isoflurane and then injected through the penile vein with 1 mL of a solution of 2.5 mg of Evan's blue dye and 5.0 mg of human serum albumin in 1 mL of saline. This treatment was followed immediately by intracutaneous injections of 0.03 mL of anti-human albumin diluted to contain 3.65 mg of antibody at 3 sites along the midline back. Anesthesia was terminated and after three hours, the animals were sacrificed. The skin was removed and the blue stained areas cut out. The skin patches were soaked overnight in stoppered tubes containing 1 mL of 1 N potassium hydroxide at 37° C. Then 9 mL of a mixture of five parts of a 0.6 N phosphoric acid and thirteen parts of acetone were added to the tubes. The tube contents were agitated and centrifuged, and the absorbance measured at 620 nm. The data were calculated as inhibition of blueing by test compound compared to control animals receiving only antigen and antibody.

[3] = system: Ear Edema Caused by Arachidonic Acid; experiment: Inhibition of Ear Edema Caused by Arachidonic Acid (II), Table 8; format: in vivo, CF-1 mice; details: i.p., sixty minutes
Procedure: Inhibition of Ear Edema Caused by Arachidonic Acid (II)
CF-1 mice, 25-30 g body weight, six animals per group, were used. The requisite amount of the test compound was dissolved is dimethyl sulfoxide or 0.5% methylcellulose and 100 μL of the solution was injected intraperitoneally 30 minutes prior to the administration of 100 mg/kg of arachidponic acid. A solution of this irritant, b 100 mg/mL in ethanol, was applied to the surface of the ear, 5 μL to the upper surface and 5 μL to the lower surface. After sixty minutes, the thickness of the ear was measured to 0.01 mm by a micrometer with the loose drag positioned at the lateral-most edge of the mid-point of the pinna. Data were calculated as the percent inhibityion by the test compound of increased ear thickness compared to control animals recieveing only the irritant.

[4] = system: Ear Edema Caused by Xylene; experiment: Inhibition of Ear Edema Caused by Xylene (II), Table 9; format: in vivo, CF-1 mice; details: i.p., 2 h
Procedure: Inhibition of Ear Edema Caused by Xylene (II)
CF-1 mice, 25-30 g body weight, six animals per group, were used. The requisite amount of the test compound was dissolved is dimethyl sulfoxide or 0.5% methylcellulose and 100 μL of the solution was injected intraperitoneally 30 minutes prior to the administration the irritant. The irritant xylene was applied to the surface of the ear, 20 μL to the upper surface and 20 μL to the lower surface, After two hours, the thickness of the ear was measured to 0.01 mm by a micrometer with the loose drag positioned at the lateral-most edge of the mid-point of the pinna. Data were calculated as the percent inhibition by the test compound of increased ear thickness compared to control animals receiving only the irritant.

[5] = system: Ear Edema Caused By Tetradecanoylphorbol Acetate; experiment: Inhibition of Ear Edema Caused by Tetradecanoylphorbol Acetate (II), Table 7; format: in vivo, CF-1 Mice; details: i.p., 3 h
Procedure: Inhibition of Ear Edema Caused by Tetradecanoylphorbol Acetate (II)
CF-1 Mice, 25-30 g body weight, six animals per group were used. Test compounds were administered intraperitoneally or topically as follows. For intraperitoneal administration, the test compound was dissolved in dimethyl sulfoxide or 0.5% methylcellulose and 100 microliters was injected 30 minutes prior to irritant (100 mg/kg, i.p.). […] A solution of the irritant, tetradecanoylphorbol acetate, 200 μg/mL, was added to the surface of the ear, 5 μL to the upper surface and 5 μL to the lower surface. After three hours, the thickness of the ear was measured to 0.01 mm by a micrometer with loose drag, positioned at the lateral-most edge of the mid-point of the pinna. Data were calculated as the inhibition of increased ear thickness compared to control animals receiving only the irritant.

SMILES | % Inhibition Intraperitoneal ([1]; 10 mg/kg) | % Inhibition Intraperitoneal ([1]; 30 mg/kg) | % Inhibition Intraperitoneal ([1]; 100 mg/kg) | % Inhibition Intraperitoneal [2] | % Inhibition Intraperitoneal ([3]; 10 mg/kg) | % Inhibition Intraperitoneal ([3]; 30 mg/kg) | % Inhibition Intraperitoneal ([3]; 100 mg/kg) | % Inhibition ([4]; 10 mg/kg) | % Inhibition ([4]; 30 mg/kg) | % Inhibition ([4]; 100 mg/kg) | % Inhibition Intraperitoneal ([5]; 10 mg/kg) | % Inhibition Intraperitoneal ([5]; 30 mg/kg) | % Inhibition Intraperitoneal ([5]; 100 mg/kg)
COCc1cccc2c1C(COC(=O)N[C@@H](CC(C)C)C(=O)O)c1ccccc1-2 (stereo partly drawn) [NPC 15673, N-{[9H-(1-Methoxymethylfluoren-9-yl)methoxy]carbonyl}-L-leucine] | 0% | 12% | 18% | 46% | 24% | 27% | 58% | 20% | 26% | 29% | 0% | 33% | 60%
CC(C)(C)C[C@H](NC(=O)OCC1c2ccccc2-c2ccccc21)C(=O)O [NPC 15676, N-[(9H-Fluoren-9-ylmethoxy)carbonyl]-L--neopentylglycine quarter hydrate] | 0% | 4% | 50% | 82% | 20% | 44% | 79% | 26% | 12% | 44% | 0% | 20% | 16%
CC(C)(SCc1ccccc1)[C@@H](NC(=O)OCC1c2ccccc2-c2ccccc21)C(=O)O [NPC 15953, S-Benzyl-β,β-dimethyl-N-[9H-(fluoren-9-ylmethoxy)carbonyl]-D-cystein] | 0% | 28% | 79% | 68% | 46% | 66% | 60% | 46% | 66% | 60% | 64% | 87% | 95%
CNC(=O)[C@H](CC(C)C)NC(=O)OCC1c2ccccc2-c2ccccc21 [NPC 15529, N-[(9H-Fluoren-9-ylmethoxy)carbonyl]-L-leucine methylamide] | 32% | 41% | 76% | 0% | 16% | 32% | 29% | 50% | 47% | 50% | 67% | 67% | 78%
CC(C)C[C@H](NC(=O)OCCC1c2ccccc2-c2ccccc21)C(=O)O [NPC 15521, N-[(9H-Fluoren-9-ylethoxy)carbonyl]-L-leucine] | 39% | 45% | 74% | 63% | 34% | 41% | 69% | 20% | 15% | 57% | 33% | 37% | 77%
CCCC[C@H](NC(=O)OCC1c2ccccc2-c2ccccc21)C(=O)O [NPC 15667, N-[9H-(Fluorenyl-9-ylmethoxy)carbonyl]-L-norleucine] | 13% | 15% | 71% | 63% | 7% | 57% | 65% | 22% | 57% | 80% | -80% | 72% | –

Source: patent US5079260A, “Method for treating inflammation and compounds and compositions suitable for use therein” (Nova Pharmaceutical Corporation, priority 1990, dated 1992)
